Test results: US6713665B2, “Maize NPR1 promoter and methods of use in plant gene expression” (Pioneer Hi-Bred International, Inc., priority 1999, dated 2004)

Test system: PR1#81::GUS
Assay: Effects of defense elicitors on PR1#81::GUS expression in bombarded GS3 immature embryos
Format: cell-based, maize
Settings: 1 mM salicylic acid or 0.1 mM jasmonic acid, 20-24 h; for PR1#81::GUS expression in the absence of exogenous NPR1: PR1#81::GUS alone; for PR1#81::GUS expression in the presence of exogenous NPR1: co-bombarded with Ubi::NPR1
Description: To evaluate the effects of defense elicitors on PR1#81::GUS expression with or without overexpression of NPR1, three experiments with a total of five replications were performed. GS3 immature embryos were bombarded with either PRI#81::GUS alone or in combination with Ubi::NPR1. Twenty-four hours after bombardment the embryos were treated with either 50 µg/ml of chitosan, 1 mM salicylic acid, or 0.1 mM jasmonic acid diluted in liquid osmotic medium. The embryos were then cultured at 28° C. for twenty to twenty-four hours before the histochemical GUS staining at 37° C. Visual observation of blue spots by histochemical GUS staining was used for interpretation of the transient assay results.

Compound	PR1#81::GUS expression in the absence of exogenous NPR1	PR1#81::GUS expression in the presence of exogenous NPR1
CC/C=C\C[C@H]1C(=O)CC[C@@H]1CC(=O)O [jasmonic acid]	suppressed	suppressed
O=C(O)c1ccccc1O [salicylic acid]	up regulated	up regulates
